Test [1] concerns MV4-11 (expressing FLT3/ITD mutant gene). As to the kind of experiment: Cell proliferation, Cell Titer-Glo, MV4-11. It is filed as cell-based. The settings on record: Homo sapiens; for pIC50: MV4-11, incubated for 72 hours, read-out: MV4-11 IC50. An outline of the steps:
(§1)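 Read-out: luminescence from ATP in live cells (CellTiter-Glo), taken as viable cell number. Cell lines were built in-house.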

The test system of test [2] is MOLM-13 (expressing FLT3/ITD mutant gene and wild-type FLT3 gene). As to the kind of experiment: Cell proliferation, Cell Titer-Glo, MOLM-13. In kind it is cell-based. The settings on record: Homo sapiens; for pIC50: MOLM-13, incubated for 72 hours, read-out: MOLM-13 IC50. An outline of the steps: as §1
In test [3] the test system is pro-B cell BaF3. As to the kind of experiment: Cell proliferation, Cell Titer-Glo, BaF3. It is filed as cell-based. The settings on record: Mus musculus, incubated for 72 hours. An outline of the steps:
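Proliferation of the engineered BaF3 lines was followed by measuring ATP in living cells with a CellTiter-Glo chemiluminescence viability kit, and the luminescent signal served as the count of viable cells.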

In test [4] the test system is MOLM-14 (expressing FLT3/ITD mutant gene and wild-type FLT3 gene). As to the kind of experiment: Cell proliferation, Cell Titer-Glo, MOLM-14. The settings on record: Homo sapiens; for pIC50: MOLM-14, incubated for 72 hours, read-out: MOLM-14 IC50. It is filed as cell-based. An outline of the steps: as §1
Test [5] has as its system TEL-BaF3-EGFR (stably expressing EGFR kinase). As to the kind of experiment: Cell proliferation, Cell Titer-Glo, TEL-BaF3-EGFR. In kind it is cell-based. The settings on record: Mus musculus; incubated for 72 hours. As to the method: (§2) The above cell lines were constructed by our laboratory.
(§3) The number of viable cells was determined by quantification of ATP in living cells using the Cell Titer-Glo® (Promega, USA) chemiluminescence cell viability assay kit.

Test [6] concerns BaF3-FLT3-ITD-D835Y (stably expressing FLT3/ITD D835Y mutant activated kinase). As to the kind of experiment: Cell proliferation, Cell Titer-Glo, BaF3-FLT3-ITD-D835Y. In kind it is cell-based. The settings on record: Mus musculus; for pIC50: incubated for 72 hours, read-out: BaF3-FLT3-ITD-D835Y IC50. As to the method:
as §2, §3

In test [7] the target is BTK protein kinase (Homo sapiens (Human), UniProt Q06187). As to the kind of experiment: In vitro inhibition activity (enzymatic activity), ADP-Glo, BTK. In kind it is biochemical. The settings on record: ATP 10 μM.
Test [8] concerns TEL-BaF3-BLK (stably expressing BLK kinase). As to the kind of experiment: Cell proliferation, Cell Titer-Glo, TEL-BaF3-BLK. In kind it is cell-based. The settings on record: Mus musculus; incubated for 72 hours. An outline of the steps: (§4)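 Cells from the in-house-constructed BaF3 lines were grown with compound. Viability was then scored by chemiluminescent detection of cellular ATP.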

The subject of test [9] is TPR-MET-BaF3 (stably expressing MET kinase). In words: Cell proliferation, Cell Titer-Glo, TPR-MET-BaF3. In kind it is cell-based. The settings on record: Mus musculus; incubated for 72 hours. An outline of the steps:
as §4

Test [10] deals with BaF3-FLT3-ITD-F691L (stably expressing FLT3/ITD F691L mutant activated kinase). As to the kind of experiment: Cell proliferation, Cell Titer-Glo, BaF3-FLT3-ITD-F691L. In kind it is cell-based. The settings on record: Mus musculus; for pIC50: incubated for 72 hours, read-out: BaF3-FLT3-ITD-F691L IC50. Here is the method: as §2, §3
Test [11] concerns U937 (expressing wild-type FLT3 gene). In words: Cell proliferation, Cell Titer-Glo, U937. The settings on record: Homo sapiens, U-937, 72 h; for pIC50: incubated for 72 hours, read-out: U937 IC50. It is filed as cell-based, human. An outline of the steps: as §1
The subject of test [12] is TEL-cKIT-BaF3 (stably expressing cKIT kinase). As to the kind of experiment: Cell proliferation, Cell Titer-Glo, TEL-cKIT-BaF3. In kind it is cell-based. The settings on record: Mus musculus; incubated for 72 hours. An outline of the steps: as §4
For test [13], the system named is TEL-BaF3-BMX (stably expressing BMX kinase). As to the kind of experiment: Cell proliferation, Cell Titer-Glo, TEL-BaF3-BMX. In kind it is cell-based. The settings on record: Mus musculus; incubated for 72 hours. An outline of the steps: as §4
In test [14] the test system is TEL-JAK1-BaF3 (stably expressing JAK1 kinase). In words: Cell proliferation, Cell Titer-Glo, TEL-JAK1-BaF3. In kind it is cell-based. The settings on record: Mus musculus; incubated for 72 hours. An outline of the steps:
as §4

The test system of test [15] is TEL-BaF3-FLT3/ITD (stably expressing FLT3/ITD mutant activated kinase). In words: Cell proliferation, Cell Titer-Glo, TEL-BaF3-FLT3/ITD. In kind it is cell-based, mouse. The settings on record: Mus musculus, 72 h; for pIC50: incubated for 72 hours, read-out: TEL-BaF3-FLT3/ITD IC50. An outline of the steps: as §4
In test [16] the test system is TEL-BaF3-FLT3-D835Y (stably expressing FLT3 D835Y mutant activated kinase). As to the kind of experiment: Cell proliferation, Cell Titer-Glo, TEL-BaF3-FLT3-D835Y. It is filed as cell-based. The settings on record: Mus musculus; for pIC50: incubated for 72 hours, read-out: TEL-BaF3-FLT3-D835Y IC50. An outline of the steps: as §4
In test [17] the test system is TEL-FLT3-BaF3 (stably expressing FLT3 kinase). As to the kind of experiment: Cell proliferation, Cell Titer-Glo, TEL-FLT3-BaF3. In kind it is cell-based. The settings on record: Mus musculus; for pIC50: incubated for 72 hours, read-out: TEL-FLT3-BaF3 IC50. As to the method: as §2, §3
In test [18] the test system is Signaling pathways of FLT3 in MV4-11 and MOLM-14 cell lines. As to the kind of experiment: Effects on upstream and downstream signaling pathways of FLT3 in cells. It is filed as cell-based, human.
Test [19] has as its system MOLM-14 cells. In words: Nude mouse subcutaneous tumor model with MOLM-14 cells. It is filed as in vivo. The settings on record: oral gavage. As to the method:
More than 30 mice (5-week-old) (Balb/c-nu female mice, purchased from Shanghai Snake Experimental Animal Co., Ltd.) were inoculated subcutaneously with MOLM-14 cells in 1×10^7 cells/mouse, the changes in body weight and tumor volume were recorded daily (tumor volume=Tumor length×tumor width^2/2).

pIC50: −log10 of the molar value. Counter-ions that a name gives are not always drawn. Like-named read-outs stand apart in the source and are kept apart here.

BTK protein kinase, sequence (Q06187 whole entry): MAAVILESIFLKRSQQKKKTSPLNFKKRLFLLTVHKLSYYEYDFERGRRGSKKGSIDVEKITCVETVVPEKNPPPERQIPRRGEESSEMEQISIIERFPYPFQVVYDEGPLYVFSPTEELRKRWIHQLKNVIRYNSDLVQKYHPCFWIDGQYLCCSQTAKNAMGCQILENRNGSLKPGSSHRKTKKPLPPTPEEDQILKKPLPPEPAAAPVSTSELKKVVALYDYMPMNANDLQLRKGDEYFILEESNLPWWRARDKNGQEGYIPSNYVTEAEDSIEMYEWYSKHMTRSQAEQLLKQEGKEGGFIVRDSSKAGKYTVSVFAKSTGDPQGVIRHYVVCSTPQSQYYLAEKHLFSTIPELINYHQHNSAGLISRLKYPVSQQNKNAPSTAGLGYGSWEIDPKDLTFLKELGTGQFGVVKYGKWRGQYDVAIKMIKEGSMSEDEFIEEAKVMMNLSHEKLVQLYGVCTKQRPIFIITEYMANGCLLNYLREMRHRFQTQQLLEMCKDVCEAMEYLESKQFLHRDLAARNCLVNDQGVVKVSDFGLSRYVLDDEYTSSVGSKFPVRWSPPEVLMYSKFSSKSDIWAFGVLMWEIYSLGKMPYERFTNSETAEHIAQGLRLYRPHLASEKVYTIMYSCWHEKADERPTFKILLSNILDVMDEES

For `NC(=O)C(=O)N1CCC[C@@H](n2nc(-c3ccc(Oc4ccccc4)cc3)c3c(N)ncnc32)C1` [Compound 5, (R)-2-(3-(4-amino-(4-phenoxyphenyl)-1H-pyrazolo[3,4-d]pyrimidin-1-yl)piperidin-1-yl)-2-oxamide], the pIC50 was 6.92 in test [1]; 7.07 in test [2]; less than 5.00 in [3]; 6.68 in [4]; less than 5.00 in [5]; 6.49 in [6]. Also, the pIC50 was 7.40 in test [7]; 6.01 in test [8]; 5.24 in test [9]; 6.43 in test [10]; 5.19 in test [11]; 5.66 in [12]. Also, the pIC50 was 6.70 in test [13], 5.40 in test [14], 6.29 in [15] and 7.47 in test [16].

Turning to `Nc1ncnc2c1c(-c1ccc(Oc3ccccc3)cc1)nn2[C@@H]1CCCN(C(=O)[C@H](N)Cc2c[nH]cn2)C1` [Compound 7, (R)-2-amino-1-((R)-3-(4-amino-(4-phenoxyphenyl)-1H-pyrazolo[3,4-d]pyrimidin-1-yl)piperidin-1-yl)-3-(1H-imidazol-4-yl)propan-1-one], the pIC50 was 8.00 in test [1]; 8.92 in test [2]; 6.36 in test [3]; 7.64 in test [4]; 6.00 in test [5]; 6.96 in [6]. Moreover, the pIC50 in test [7] was 7.57; in test [8], 7.29; in test [9], 6.28; in [10] it was 6.60; in test [11] it was 6.27; in [12], 6.46. Besides, the pIC50 was 6.48 in test [13], 6.43 in test [14], 8.05 in test [15] and 6.52 in test [16].

With `Nc1ncnc2c1c(-c1ccc(Oc3ccccc3)cc1)nn2[C@@H]1CCCN(C(=O)N2CCNCC2)C1` [Compound 14, (R)-(3-(4-amino-(4-phenoxyphenyl)-1H-pyrazolo[3,4-d]pyrimidin-1-yl)piperidin-1-yl)(piperazin-1-yl)methanone], the pIC50 is 7.31 in test [1]; 7.22 in test [2]; 5.01 in test [3]; 6.92 in test [4]; 5.80 in test [5]; 6.60 in [6]. Also, the pIC50 is 7.20 in test [7]; 6.00 in test [8]; 5.52 in test [9]; 6.43 in test [10]; 5.38 in test [11]; 5.31 in test [12]. Also, the pIC50 in test [13] was 6.37; in test [14] it was 5.11; in [15], 7.06; in test [16], 6.62.

As to `CC(C)C[C@@H](N)C(=O)N1CCC[C@@H](n2nc(-c3ccc(Oc4ccccc4)cc3)c3c(N)ncnc32)C1` [Compound 27, (R)-2-amino-1-((R)-3-(4-amino-(4-phenoxyphenyl)-1H-pyrazolo[3,4-d]pyrimidin-1-yl)piperidin-1-yl)-4-methylpentan-1-one], the pIC50 in [1] is 7.49; in [2], 7.85; in test [3], 5.89; in [4], 7.64; in test [5], 6.00; in test [6], 6.70. The pIC50 is 6.16 in test [7]; 6.68 in test [8]; 5.82 in test [9]; 6.55 in [10]; 5.39 in test [11]; 5.80 in test [12]. Moreover, the pIC50 was 6.47 in test [13], 5.66 in test [14], 8.30 in [15] and 7.74 in [16].

On to `CN(C)CC(=O)NC1CCC(n2nc(-c3ccc(Oc4ccccc4)cc3)c3c(N)ncnc32)CC1` (stereo not shown) [Compound 76, N-(4-(4-amino-3-(4-phenoxyphenyl)-1H-pyrazolo[3,4-d]pyrimidin-1-yl)cyclohexyl)-2-(dimethylamino)acetamide], for which the pIC50 is 7.57 in [1]; 5.38 in test [3]; 7.44 in test [4]; 6.89 in [6]; 6.41 in [7]; 7.52 in test [8]. Further, the pIC50 in [10] is 6.74; in [11], less than 5.00; in test [12], 6.37; in test [17] it was 7.38; in test [13] it was 6.92; in test [16], 7.64. Also, the IC50 in [15] (read-out: TEL-BaF3-FLT3/ITD IC50 [μM]) came to 0.0067 µM.

Turning to `CC(C)C[C@@H](N)C(=O)NC1CCC(n2nc(-c3ccc(Oc4ccccc4)cc3)c3c(N)ncnc32)CC1.Cl` (stereo partly drawn) [Compound 77, (R)-2-amino-N-(4-(4-amino-3-(4-phenoxyphenyl)-1H-pyrazolo[3,4-d]pyrimidin-1-yl)cyclohexyl)-4-methylpentanamide hydrochloride], the IC50 was 0.0016 µM in test [1] (MV4-11, 72 h, read-out: MV4-11 IC50 [μM]); 0.0027 µM in test [2] (MOLM-13, 72 h, read-out: MOLM-13 IC50 [μM]); 0.0084 µM in test [4] (MOLM-14, 72 h, read-out: MOLM-14 IC50 [μM]); 0.073 µM in test [6] (72 h, read-out: BaF3-FLT3-ITD-D835Y IC50 [μM]); 0.067 µM in test [10] (72 h, read-out: BaF3-FLT3-ITD-F691L IC50 [μM]); 3.4 µM in [11] (read-out: U937 IC50 [μM], incubated for 72 hours). For the same compound, the IC50 in test [17] (72 h, read-out: TEL-FLT3-BaF3 IC50 [μM]) was found to be 0.0081 µM; in test [16] (72 h, read-out: TEL-BaF3-FLT3-D835Y IC50 [μM]), 0.021 µM. The pIC50 in [3] was 5.66; in test [7], 6.89; in test [8], 8.59; in test [13], 7.28; in [15], more than 9.52. Besides, the “efficacy compared with Control Compound AC220” value in test [18] (AC220 at 0.1 μM) is given as “better efficacy”. The “C-Myc (degradation; for AC220 phosphorylation)” value in [18] (treated for 4 hours) was “significant effects on the degradation”. The “phosphorylation of STAT5” value in test [18] (treated for 4 hours) is “very strong inhibitory effects”. For the same compound, the “phosphorylation of protein kinase FLT3” value in test [18] (treated for 4 hours) is on record as “strongly inhibited”. For the same compound, in test [19] (25 mg/kg/day), the “tumor volume growth of the mice” value is “significantly slowed down”. Further, the “growth of the tumors of the mice” value in test [19] (50.0 mg/kg/day) is “almost no growth”. Moreover, the “tumor growth of the mice” value in test [19] (12.5-50 mg/kg, 2 to 3 weeks) is on record as “significantly inhibited”.

As to `CC(C)[C@@H](N)C(=O)NC1CCC(n2nc(-c3ccc(Oc4ccccc4)cc3)c3c(N)ncnc32)CC1` (stereo partly drawn) [Compound 86, (R)-2-amino-N-(4-(4-amino-(4-phenoxyphenyl)-1H-pyrazolo[3,4-d]pyrimidin-1-yl)cyclohexyl)-3-methylbutanamide hydrochloride], the pIC50 was 7.70 in test [1]; 9.00 in test [2]; 8.30 in test [4]; 5.89 in test [5]; 8.22 in [6]; 9.00 in [8]. In addition, the pIC50 was 5.48 in test [9]; 6.82 in test [10]; 5.85 in test [11]; 6.57 in test [12]; 8.40 in test [17]; more than 9.52 in test [13].
